Measurements from patent US20050282242A1, “Screening assays for antimicrobial agents” (priority 2004, published 2005).
Converted amounts (≈) assume the structure as drawn. Read-outs that look alike come from different tables or passages of the source.

Tests used:
[1] = test system: S. aureus RpoB mutant A477V; experiment: MIC, S. aureus RpoB A477V mutant; assay type: cell-based; details: Staphylococcus aureus; RpoB mutation A477V; strain backgrounds 1, 2
Source text: (§1) S. aureus is one of the most frequently encountered Gram-positive pathogens. Drug resistance-conferring mutations typically occur within the β subunit of RNA polymerase (RpoB mutations), in the rifampin-binding site. Mutants of S. aureus were isolated by inoculating a culture of S. aureus ATCC strain 29213 (standard susceptibility testing strain) into medium containing rifampin or rifalazil; by inoculating S. aureus ATCC strain 29213 into medium containing chemical derivatives of rifamycin (NCEs); by inoculating S. aureus Smith, a variant optimally adapted to colonizing and causing disease in the mouse septicemia model, into medium containing rifampin; and by using the Ian Chopra collection, the parent strain of which is S. aureus 8325-4 and described previously by Oliva et al. (Antimicrob. Agents Chemother. 45:532-9, 2001). […]
(§2) Having identified these mutants, the minimum inhibitory concentrations (MIC) of a number of rifamycin derivatives were determined in microtiter trays by inoculating 1-8×10^4 microorganisms in 100 μl of Mueller-Hinton Broth (cation adjusted) containing the indicated compound (Table 3) (National Committee for Clinical Laboratory Standards, Methods for Dilution Antimicrobial Susceptibility Tests for Bacteria That Grow Aerobically-Fourth Edition: Approved Standard M7-A4. NCCLS, Villanova, Pa., 1997). […]

[2] = test system: S. aureus RpoB mutant D471Y; experiment: MIC, S. aureus RpoB D471Y mutant; assay type: cell-based; details: Staphylococcus aureus; RpoB mutation D471Y; strain backgrounds 1, 2, 4
Source text: as §1, §2

[3] = test system: S. aureus RpoB mutant L466S; experiment: MIC, S. aureus RpoB L466S mutant; assay type: cell-based; details: Staphylococcus aureus; RpoB mutation L466S; strain backgrounds 1, 2, 4
Source text: as §1, §2

[4] = test system: S. aureus RpoB mutant A477D; experiment: MIC, S. aureus RpoB A477D mutant; assay type: cell-based; details: Staphylococcus aureus; RpoB mutation A477D; strain backgrounds 1, 4
Source text: as §1, §2

[5] = test system: Wild-type parent strains (S. aureus 29213, Smith, W59536, 8325-4); experiment: MIC, wild-type parent S. aureus strains; assay type: cell-based
Source text: S. aureus is one of the most frequently encountered Gram-positive pathogens. Drug resistance-conferring mutations typically occur within the β subunit of RNA polymerase (RpoB mutations), in the rifampin-binding site. Mutants of S. aureus were isolated by inoculating a culture of S. aureus ATCC strain 29213 (standard susceptibility testing strain) into medium containing rifampin or rifalazil; by inoculating S. aureus ATCC strain 29213 into medium containing chemical derivatives of rifamycin (NCEs); by inoculating S. aureus Smith, a variant optimally adapted to colonizing and causing disease in the mouse septicemia model, into medium containing rifampin; and by using the Ian Chopra collection, the parent strain of which is S. aureus 8325-4 and described previously by Oliva et al. (Antimicrob. Agents Chemother. 45:532-9, 2001). Mutants resistant to rifampin, rifalazil, or NCEs were selected either on drug-containing plates or in liquid culture.
Having identified these mutants, the minimum inhibitory concentrations (MIC) of a number of rifamycin derivatives were determined in microtiter trays by inoculating 1-8×10^4 microorganisms in 100 μl of Mueller-Hinton Broth (cation adjusted) containing the indicated compound (Table 3) (National Committee for Clinical Laboratory Standards, Methods for Dilution Antimicrobial Susceptibility Tests for Bacteria That Grow Aerobically-Fourth Edition: Approved Standard M7-A4. NCCLS, Villanova, Pa., 1997). These cultures were incubated for 16-20 hours at 35° C. Based on our results, the most important mutants (conferring the strongest resistance) were identified for more extensive testing of NCEs. These mutants were H481Y, Q468K, S486L, D471Y, S464P, A477D, and H481D. […] An exception to the uniformity of the measure of resistance is provided by the mutants D471Y and S464P, which together have lower MICs for some of the compounds compared to the rest. […]

[6] = test system: S. aureus RpoB mutant D471G; experiment: MIC, S. aureus RpoB D471G mutant; assay type: cell-based; details: Staphylococcus aureus; RpoB mutation D471G; strain backgrounds 1, 2
Source text: as §1, §2

[7] = test system: S. aureus RpoB mutant Q468R; experiment: MIC, S. aureus RpoB Q468R mutant; assay type: cell-based; details: Staphylococcus aureus; RpoB mutation Q468R; strain background 1
Source text: as §1, §2

[8] = test system: S. aureus RpoB mutant R484C; experiment: MIC, S. aureus RpoB R484C mutant; assay type: cell-based; details: Staphylococcus aureus; RpoB mutation R484C; strain background 3
Source text: as §1, §2

[9] = test system: S. aureus RpoB mutant R484H; experiment: MIC, S. aureus RpoB R484H mutant; assay type: cell-based; details: Staphylococcus aureus; RpoB mutation R484H; strain backgrounds 1, 3
Source text: as §1, §2

[10] = test system: S. aureus RpoB mutant S486L; experiment: MIC, S. aureus RpoB S486L mutant; assay type: cell-based; details: Staphylococcus aureus; RpoB mutation S486L; strain backgrounds 1, 2, 4
Source text: as §1, §2

S. aureus 29213 = experiment: Mutant score test (resistance development on agar); assay type: cell-based; details: 10^9 cells of S. aureus 29213 on agar plate with 1 μg/ml compound
Procedure: A further confirmation of the validity of MIC testing of the mutant panel was provided by our mutant score test. Using this strategy, compounds were individually tested for resistance development by inoculating 10^9 cells of S. aureus 29213, a standard susceptibility strain, onto a large agar plate (150 mm) containing Mueller Hinton Agar as well as 1 μg/ml of the test compound. The presence of rifalazil or rifampin in these plates generally allowed for the growth of ˜50 colonies, all colonies representing a mutant sub-population or populations in the culture. […] The MICs of NCEs on agar plates were lower than MICs determined by growth in liquid broth. […] This correlation provided additional confidence in the value and ranking of compounds by MIC testing of the mutant panel, as compounds having a score of 2 have tracked with strong activity in MIC testing against resistant strains, as indicated in Table 3.

[11] = test system: S. aureus RpoB mutant H481D; experiment: MIC, S. aureus RpoB H481D mutant; assay type: cell-based; details: Staphylococcus aureus; RpoB mutation H481D; strain backgrounds 1, 4
Source text: as §1, §2

[12] = test system: S. aureus RpoB mutant Q468K; experiment: MIC, S. aureus RpoB Q468K mutant; assay type: cell-based; details: Staphylococcus aureus; RpoB mutation Q468K; strain background 1
Source text: as §1, §2

[13] = test system: S. aureus RpoB mutant I527P; experiment: MIC, S. aureus RpoB I527P mutant; assay type: cell-based; details: Staphylococcus aureus; RpoB mutation I527P; strain background 1
Source text: as §1, §2

[14] = test system: S. aureus RpoB mutant H481N; experiment: MIC, S. aureus RpoB H481N mutant; assay type: cell-based; details: Staphylococcus aureus; RpoB mutation H481N; strain backgrounds 1, 4
Source text: as §1, §2

[15] = test system: S. aureus RpoB mutant S464P; experiment: MIC, S. aureus RpoB S464P mutant; assay type: cell-based; details: Staphylococcus aureus; RpoB mutation S464P; strain backgrounds 1, 2, 4
Source text: as §1, §2

[16] = test system: S. aureus RpoB mutant H481Y; experiment: MIC, S. aureus RpoB H481Y mutant; assay type: cell-based; details: Staphylococcus aureus; RpoB mutation H481Y; strain backgrounds 1, 2, 3
Source text: as §1, §2

[17] = test system: S. aureus RpoB mutant I527M; experiment: MIC, S. aureus RpoB I527M mutant; assay type: cell-based; details: Staphylococcus aureus; RpoB mutation I527M; strain background 1
Source text: as §1, §2

[18] = test system: S. aureus RpoB mutant D471E; experiment: MIC, S. aureus RpoB D471E mutant; assay type: cell-based; details: Staphylococcus aureus; RpoB mutation D471E; strain background 4
Source text: as §1, §2

[19] = test system: S. aureus RpoB mutant H481R; experiment: MIC, S. aureus RpoB H481R mutant; assay type: cell-based; details: Staphylococcus aureus; RpoB mutation H481R; strain background 3
Source text: as §1, §2

[20] = test system: S. aureus RpoB mutant Q137L; experiment: MIC, S. aureus RpoB Q137L mutant; assay type: cell-based; details: Staphylococcus aureus; RpoB mutation Q137L; strain backgrounds 1, 4
Source text: as §1, §2

[21] = test system: S. aureus RpoB mutant D471V; experiment: MIC, S. aureus RpoB D471V mutant; assay type: cell-based; details: Staphylococcus aureus; RpoB mutation D471V; strain background 3
Source text: as §1, §2

[22] = test system: S. aureus RpoB mutant R484S; experiment: MIC, S. aureus RpoB R484S mutant; assay type: cell-based; details: Staphylococcus aureus; RpoB mutation R484S; strain background 1
Source text: as §1, §2

[23] = test system: S. aureus Smith mutant containing the S486L mutation in RpoB; experiment: Mouse septicemia model, S. aureus Smith RpoB S486L; assay type: in vivo; details: 1.4 × 10^7 CFU/mouse, three days
Procedure: (§3) Antimicrobial compounds may also be screened in vivo using a mouse septicemia model. In one particular example, mice were inoculated with an S. aureus Smith strain (Weiss) encoding a mutated microbial polypeptide (e.g., a mutated RpoB). Compounds were administered either IV or orally 30 minutes following inoculation, and observations was continued for three days. Compounds that promoted the survival of inoculated mice were identified as being compounds that are effective against antibiotic-resistant forms of S. aureus.
(§4) This was accounted for by the increased MIC against these mutant strains compared with the wild-type strain (MICs of 2 μg/ml and 0.004-0.008 μg/ml, respectively).

[24] = test system: S. aureus Smith containing the RpoB H481Y alteration; experiment: Mouse septicemia model, S. aureus Smith RpoB H481Y; assay type: in vivo; details: for Survival (n = 5): mouse, 1.1 × 10^7 CFU/mouse, three days
Procedure: as §3, §4

[25] = test system: S. aureus Smith mutant containing the L466S mutation in RpoB; experiment: Mouse septicemia model, S. aureus Smith RpoB L466S; assay type: in vivo; details: 1.1 × 10^7 CFU/mouse, three days
Procedure: as §3, §4

Row | SMILES | MIC [1] | MIC [2] | MIC [3] | MIC [4] | MIC [6] | MIC [7] | MIC [8] | MIC [9] | MIC [10] | growth of mutant colonies on plate (S. aureus 29213) | MIC [11] | MIC [12] | MIC [13] | MIC [14] | MIC [15] | MIC [16] | MIC [17] | MIC [18] | MIC [19] | MIC [20] | also measured
1 | CO[C@H]1/C=C/O[C@@]2(C)Oc3c(C)c(O)c4c(=O)c(c5oc6cc(N7CCN(CC(C)C)CC7)cc(O)c6nc-5c4c3C2=O)NC(=O)/C(C)=C\C=C\[C@H](C)[C@H](O)[C@@H](C)[C@@H](O)[C@@H](C)[C@H](OC(C)=O)[C@@H]1C [Rfz, rifalazil] | 0.063 µg/mL (≈ 0.0669 µM) | 0.25 µg/mL (≈ 0.266 µM) | 0.016 µg/mL (≈ 0.017 µM) | 2 to 4 µg/mL (≈ 2.13 to 4.25 µM) | > 8 µg/mL | > 8 µg/mL | 0.5 µg/mL (≈ 0.531 µM) | 8 µg/mL (≈ 8.5 µM) | > 8 µg/mL | ~50 colonies | > 8 µg/mL | > 8 µg/mL | 1 µg/mL (≈ 1.06 µM) | 0.125 µg/mL (≈ 0.133 µM) | 1 µg/mL (≈ 1.06 µM) | > 8 µg/mL | 0.063 µg/mL (≈ 0.0669 µM) | < 0.031 µg/mL | > 8 µg/mL | < 0.031 µg/mL | MIC ([5]; Mutation None: wild-type parent strains): 0.015 µg/mL (≈ 0.0159 µM); MIC ([5]; Staphylococcus aureus, strain not stated, matches wild-type value of Table 2, read-out: MIC): 0.015 µg/mL (≈ 0.0159 µM); MIC [21]: 2 µg/mL (≈ 2.13 µM); MIC [22]: 0.5 µg/mL (≈ 0.531 µM)
2 | CO[C@H]1/C=C/O[C@@]2(C)Oc3c(C)c(O)c4c(O)c(c(/C=N/N5CCN(C)CC5)c(O)c4c3C2=O)NC(=O)/C(C)=C\C=C\[C@H](C)[C@H](O)[C@@H](C)[C@@H](O)[C@@H](C)[C@H](OC(C)=O)[C@@H]1C [Rifampicin, rifampin] | 1 µg/mL (≈ 1.22 µM) | 1 µg/mL (≈ 1.22 µM) | 0.25 µg/mL (≈ 0.304 µM) | > 8 µg/mL | > 8 µg/mL | > 8 µg/mL | 2 µg/mL (≈ 2.43 µM) | > 8 µg/mL | > 8 µg/mL | ~50 colonies | > 8 µg/mL | > 8 µg/mL | 4 µg/mL (≈ 4.86 µM) | 2 µg/mL (≈ 2.43 µM) | > 8 µg/mL | > 8 µg/mL | 0.25 µg/mL (≈ 0.304 µM) | 0.25 µg/mL (≈ 0.304 µM) | > 8 µg/mL | 0.25 µg/mL (≈ 0.304 µM) | MIC ([5]; Staphylococcus aureus, Mutation None: wild-type parent strains, read-out: MIC): 0.015 µg/mL (≈ 0.0182 µM); Survival (n = 5) ([23]; IV 6.0 mg/kg): 0; Survival (n = 5) ([23]; IV 20.0 mg/kg): 1; efficacy against mutant strains in vivo ([24]; mouse septicemia model, mutant strains in general): failed to be effective; Survival (n = 5) ([24]; IV 6.0 mg/kg): 0; Survival (n = 5) ([24]; IV 20.0 mg/kg): 0; Survival (n = 5) ([24]; oral 200.0 mg/kg): 0; Survival (n = 5) ([25]; IV 6.0 mg/kg): 0; Survival (n = 5) ([25]; IV 20.0 mg/kg): 0; MIC [21]: > 8 µg/mL; MIC [22]: 8 µg/mL (≈ 9.72 µM)
